Results on 1 molecule are retold here after patent US5500430A, “Amidic derivatives of glutamic, aspartic and 2-amino adipic acids, a process for preparing same, and anti-gastrin composition containing the derivatives” (Rotta Research Laboratorium S.p.A., priority 1990, dated 1996).

Common to all, as to assay type: in vivo
Assay [1] has as its system gastric acid secretion induced by pentagastrin. As to the kind of experiment: Antisecretive activity in anaesthetised rats (pentagastrin-stimulated gastric acid secretion).
Another assay relates to fundic mucosa. In words: Fundic mucosa hyperplasia induced by pentagastrin in mice. The settings on record: 21 days. An excerpt:
(§1) Inhibitory effect on the rate of growth of tumorous colic cells induced by pentagastrin
(§2) Gastrin has a trophic effect on the digestive epithelium.
(§3) Upon the basis of this premise, it was wished to investigate whether the gastrin-specific antagonists of the invention could antagonise the growth of experimentally-induced gastrointestinal tumours.
(§4) Male mice weighing 20-25 g were inoculated subcutaneously in the interscapular region with a suspension of 8×10^4 tumour cells of a mouse colic adenocarcinoma.
(§5) After 21 days, the animals were killed and the fundic mucosa and the tumours were removed, weighed and extracted to determine the DNA.

Assay [2] concerns mouse colic adenocarcinoma. In words: Colic tumorous growth induced by pentagastrin in mice. The following applies: 21 days.
From the text: as §1, §2, §3, §4, §5

Setting [3] is: pentagastrin + C-5 3 mg/Kg i.p. twice a day.
Setting [4] is: pentagastrin + C-5 10 mg/Kg i.p. twice a day.

Take `O=C(O)CC[C@@H](NC(=O)c1cc(Cl)cc(Cl)c1)C(=O)N1CCC2(CCCC2)CC1` [Compound C5]: the ED50 in assay [1] (Rattus norvegicus, iv, anaesthetised male rats, pentagastrin 30 mcg/Kg/h, I.V. bolus, IN with bound, read-out: Antagonistic activity (ID50) towards gastric acid secretion induced by pentagastrin) worked out at 15 mg/kg. For the same molecule, in assay [1] (anaesthetised rats, pentagastrin 30 mcg/Kg/h), the “Antigastrin activity (in words)” value is recorded as “particularly favourable”. Also, the “Activity as peripheral pentagastrin inhibitor relative to compound C-30” value in assay [1] (rats, vs C-30) is “slightly more active”. In addition, the “Effect on the fundic mucosa (in words)” value in the assay on fundic mucosa (mice) was “can inhibit both the aforementioned trophic effects of pentagastrin in a significant and dose-dependent manner”. For the same molecule, the entries for the “Fundic DNA, Mean ± SD” value in the assay on fundic mucosa (setting [3]) and in the assay with fundic mucosa (setting [4]) were 0.268 ± 0.03 mg and 0.252 ± 0.03 mg, respectively. Moreover, the “Weight of the mucosa fundica, Mean ± SD” value was 23.85 ± 3.48 mg in the assay with fundic mucosa (setting [3]) and 18.90 ± 2.54 mg in the assay on fundic mucosa (setting [4]). Besides, in assay [2] (mice), the “Effect on colic tumour weight and DNA content (in words)” value was “can inhibit both the aforementioned trophic effects of pentagastrin in a significant and dose-dependent manner”. Also, the “Tumorous DNA, Mean” value in assay [2] (setting [3]) is recorded as 3.24 ± 0.42 mg; in assay [2] (setting [4]) it was 2.94 ± 0.31 mg. Moreover, the “Weight of the colic tumor, Mean ± SD” value is 601.5 ± 91.7 mg in assay [2] (setting [3]) and 554 ± 61.7 mg in assay [2] (setting [4]).
